Article PMC3412176 (Journal of biological inorganic chemistry : JBIC : a …, 2012)

Biological target: T1, S. oneidensis cytochrome c nitrite reductase (ccNiR, NrfA) (Shewanella oneidensis, UniProt Q8EAC7)
T1 sequence (Q8EAC7 28-467): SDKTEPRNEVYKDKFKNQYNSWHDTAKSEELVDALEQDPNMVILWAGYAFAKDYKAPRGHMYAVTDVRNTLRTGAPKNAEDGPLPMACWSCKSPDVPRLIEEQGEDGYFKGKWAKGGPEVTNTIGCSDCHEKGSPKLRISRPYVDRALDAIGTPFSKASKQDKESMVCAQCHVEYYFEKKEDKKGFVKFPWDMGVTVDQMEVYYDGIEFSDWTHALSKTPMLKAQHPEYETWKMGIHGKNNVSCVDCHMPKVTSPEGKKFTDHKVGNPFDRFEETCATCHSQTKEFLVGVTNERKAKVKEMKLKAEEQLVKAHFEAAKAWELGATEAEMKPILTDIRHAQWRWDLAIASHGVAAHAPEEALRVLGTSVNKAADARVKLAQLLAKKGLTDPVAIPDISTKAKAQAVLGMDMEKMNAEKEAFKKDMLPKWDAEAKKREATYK
Format: biochemical

- Ki: ~600 µM
SMILES: O=S(O)O [sulfite]
